Assay results reported in paper PMC11424460, “Inhibitory effects of calcium channel blockers nisoldipine and nimodipine on ivacaftor metabolism and their underlying mechanism” (Frontiers in Pharmacology, 2024).

System: ivacaftor metabolism in rat liver microsomes (RLM)
Assay: Screening of 79 drugs (100 μM) for inhibition of ivacaftor metabolism in RLM incubation
Assay type: in vitro ADME
Settings: each drug 100 μM, 0.3 mg/mL RLM
Procedure: The supernatants were centrifuged at 100,000 × g for 1 h, and the pellets were resuspended with cold […] PBS. Protein concentrations were determined by Bradford Protein Assay Kit (Thermo Scientific, Waltham, MA, United States).
This system was made up of 200 μL of incubation solution consisting of 0.3 mg/mL RLM or 0.4 mg/mL HLM, 1.0 mM NADPH, pH 7.4 PBS and ivacaftor. […] The solution should be pre-incubated at 37°C for 5 min before adding NADPH. Following the addition of NADPH, the mixture should be incubated for 40 min. The reaction should then be stopped at −80°C. After the enzyme reaction was completed, 20 μL of 500 ng/mL IS solution and 400 μL acetonitrile (protein precipitating agent) were added to the mixture. The mixture was vortexed for 2 min and then centrifuged at 13,000 rpm for 10 min. After centrifugation, 100 μL of the supernatant was quantified using UPLC-MS/MS.
Each drug was used at a concentration of 100 μM as the inhibitor. The culture system was 200 μL and included 0.3 mg/mL RLM, 1.0 mM NADPH, PBS, ivacaftor, and inhibitor. The reaction procedure was the same as the enzyme reaction mentioned above Section 2.2.

Row | SMILES | Metabolic rate (Mean ± SD, % of control)
1 | O=C(O)Cc1ccc(O)cc1 [2-(4-Hydroxyphenyl) acetic acid] | 101.32 ± 0.94 % of control
2 | O=C(O[C@@H]1Cc2c(O)cc(O)cc2O[C@@H]1c1cc(O)c(O)c(O)c1)c1cc(O)c(O)c(O)c1 [(-)-Epigallocatechin gallate] | 72.21 ± 13.75 % of control
3 | CCCCc1oc2ccccc2c1C(=O)c1cc(I)c(OCCN(CC)CC)c(I)c1 [Amiodarone] | 5.73 ± 0.85 % of control
4 | C=C1CC[C@@H]2[C@](C)(CO)[C@H](O)CC[C@@]2(C)[C@@H]1C/C=C1/C(=O)OC[C@H]1O [Andrographolide] | 81.58 ± 1.22 % of control
5 | O=c1cc(-c2ccc(O)cc2)oc2cc(O)cc(O)c12 [Apigenin] | 58.35 ± 2.14 % of control
6 | COc1ccc(-n2nc(C(N)=O)c3c2C(=O)N(c2ccc(N4CCCCC4=O)cc2)CC3)cc1 [Apixaban] | 83.91 ± 3.91 % of control
7 | CO[C@H]1O[C@@H]2O[C@@]3(C)CC[C@H]4[C@H](C)CC[C@@H]([C@H]1C)[C@@]24OO3 [Artemether] | 41.88 ± 3.81 % of control
8 | O=c1cc(-c2ccccc2)oc2cc(O)c(O)c(O)c12 [Baicalein] | 15.24 ± 0.00 % of control
9 | O=C(O)[C@H]1O[C@@H](Oc2cc3oc(-c4ccccc4)cc(=O)c3c(O)c2O)[C@H](O)[C@@H](O)[C@@H]1O [Baicalin] | 50.95 ± 0.08 % of control
10 | COc1ccc2cc3[n+](cc2c1OC)CCc1cc2c(cc1-3)OCO2 [Berberine] | 109.72 ± 0.72 % of control
11 | COc1c(O)cc2c(c1O)[C@@H]1O[C@H](CO)[C@@H](O)[C@H](O)[C@H]1OC2=O [Bergenin] | 142.63 ± 33.46 % of control
12 | C[N+](C)(C)CC(=O)O [Betaine] | 100.10 ± 4.97 % of control
13 | COc1ccccc1Oc1c(NS(=O)(=O)c2ccc(C(C)(C)C)cc2)nc(-c2ncccn2)nc1OCCO [Bosentan] | 131.49 ± 2.21 % of control
14 | O=C(O)/C=C/c1ccc(O)c(O)c1 [Caffeic acid] | 106.41 ± 1.94 % of control
15 | COc1ccccc1OCCNCC(O)COc1cccc2[nH]c3ccccc3c12 (centres unmarked) [Carvedilol] | 12.87 ± 0.57 % of control
16 | O=c1cc(-c2ccccc2)oc2cc(O)cc(O)c12 [Chrysin] | 74.50 ± 20.73 % of control
17 | O=C1CCc2cc(OCCCCc3nnnn3C3CCCCC3)ccc2N1 [Cilostazol] | 13.12 ± 0.36 % of control
18 | CN/C(=N/CCSCc1nc[nH]c1C)NC#N [Cimetidine] | 62.59 ± 8.46 % of control
19 | COc1cc(/C=C/C(=O)CC(=O)/C=C/c2ccc(O)c(OC)c2)ccc1O [Curcumin] | 8.19 ± 0.34 % of control
20 | [H]/N=C(/N)c1ccc(NCc2nc3cc(C(=O)N(CCC(=O)O)c4ccccn4)ccc3n2C)cc1 [Dabigatran] | 104.42 ± 27.66 % of control

Row | SMILES | Metabolic rate (Mean ± SD, % of control)
21 | O=c1c(-c2ccc(O)cc2)coc2cc(O)ccc12 [Daidzein] | 105.78 ± 2.90 % of control
22 | COc1cc2cc(Oc3ccc4ccc(=O)oc4c3)c(=O)oc2cc1O [Daphnoretin] | 69.60 ± 0.85 % of control
23 | CN(C)[C@@H](CCOc1cccc2ccccc12)c1ccccc1 [Dapoxetine] | 19.76 ± 0.64 % of control
24 | COc1ccc([C@@H]2Sc3ccccc3N(CCN(C)C)C(=O)[C@@H]2OC(C)=O)cc1 [Dilthiazem] | 26.04 ± 1.00 % of control
25 | CCCCc1oc2ccc(NS(C)(=O)=O)cc2c1C(=O)c1ccc(OCCCN(CCCC)CCCC)cc1 [Dronedarone] | 4.76 ± 0.94 % of control
26 | Oc1cc(O)c2c(c1)O[C@H](c1ccc(O)c(O)c1)[C@H](O)C2 [Epicatechin] | 100.31 ± 2.66 % of control
27 | CCc1cccc2c3c([nH]c12)C(CC)(CC(=O)O)OCC3 (centres unmarked) [Etodolac] | 98.19 ± 1.07 % of control
28 | COc1ccc2cc1Oc1ccc(cc1)C[C@H]1c3cc(c(OC)cc3CCN1C)Oc1c(O)c(OC)cc3c1[C@H](C2)N(C)CC3 [Fangchinoline] | 29.41 ± 4.61 % of control
29 | O=c1c(O)c(-c2ccc(O)c(O)c2)oc2cc(O)ccc12 [Fisetin] | 44.37 ± 1.28 % of control
30 | O=C(O)c1cc(O)c(O)c(O)c1 [Gallic acid] | 95.98 ± 6.77 % of control
31 | O=c1c(-c2ccc(O)cc2)coc2cc(O)cc(O)c12 [Genistein] | 50.39 ± 12.01 % of control
32 | CCC1=C(C)CN(C(=O)NCCc2ccc(S(=O)(=O)NC(=O)N[C@H]3CC[C@H](C)CC3)cc2)C1=O [Glimepiride] | 36.97 ± 1.02 % of control
33 | COc1ccc([C@@H]2CC(=O)c3c(O)cc(O)cc3O2)cc1O [Hesperetin] | 31.12 ± 2.75 % of control
34 | COc1ccc([C@@H]2CC(=O)c3c(O)cc(O[C@@H]4O[C@H](CO[C@@H]5O[C@@H](C)[C@H](O)[C@@H](O)[C@H]5O)[C@@H](O)[C@H](O)[C@H]4O)cc3O2)cc1O [Hesperiden] | 104.17 ± 3.09 % of control
35 | COc1cc(-c2oc3cc(O)cc(O)c3c(=O)c2O)ccc1O [Isorhamnetin] | 65.68 ± 3.49 % of control
36 | O=c1c(O)c(-c2ccc(O)cc2)oc2cc(O)cc(O)c12 [Kaempferol] | 66.02 ± 4.43 % of control
37 | COC(=O)C1=C(C)NC(C)=C(C(=O)OC(C)(C)CN(C)CCC(c2ccccc2)c2ccccc2)C1c1cccc([N+](=O)[O-])c1 (centres unmarked) [Lercanidipine] | 26.70 ± 7.18 % of control
38 | CC1(C)O[C@H]2CC(=O)OC[C@]23[C@H]2CC[C@@]4(C)[C@H](c5ccoc5)OC(=O)[C@H]5O[C@]54[C@]2(C)C(=O)C[C@@H]13 [Limonin] | 19.90 ± 0.36 % of control
39 | CN1C(C(=O)Nc2ccccn2)=C(O)c2sc(Cl)cc2S1(=O)=O [Lornoxicam] | 79.39 ± 3.06 % of control
40 | CCCCc1nc(Cl)c(CO)n1Cc1ccc(-c2ccccc2-c2nn[nH]n2)cc1 [Losartan] | 35.88 ± 1.19 % of control

Row | SMILES | Metabolic rate (Mean ± SD, % of control)
41 | CC[C@H](C)C(=O)O[C@H]1C[C@@H](C)C=C2C=C[C@H](C)[C@H](CC[C@@H]3C[C@@H](O)CC(=O)O3)[C@H]21 [Lovastatin] | 17.75 ± 0.36 % of control
42 | O=c1cc(-c2ccc(O)c(O)c2)oc2cc(O)cc(O)c12 [Luteolin] | 95.78 ± 7.92 % of control
43 | CC(C)=CCC/C(C)=C/C=C/C(C)=C/C=C/C(C)=C/C=C/C=C(C)/C=C/C=C(C)/C=C/C=C(\C)CCC=C(C)C [Lycopene] | 7.16 ± 0.77 % of control
44 | O=C1CCC[C@@H]2[C@H]3CCCN4CCC[C@@H](CN12)[C@@H]34 [Matrine] | 80.23 ± 12.45 % of control
45 | Cc1cccc(C)c1OCC(C)N (centres unmarked) [Mexiletine] | 95.32 ± 2.42 % of control
46 | O=c1c(O)c(-c2cc(O)c(O)c(O)c2)oc2cc(O)cc(O)c12 [Myricetin] | 2.38 ± 0.15 % of control
47 | O=C1C[C@@H](c2ccc(O)cc2)Oc2cc(O)cc(O)c21 [Naringenin] | 42.57 ± 2.14 % of control
48 | C[C@@H]1O[C@@H](O[C@H]2[C@H](Oc3cc(O)c4c(c3)O[C@H](c3ccc(O)cc3)CC4=O)O[C@H](CO)[C@@H](O)[C@@H]2O)[C@H](O)[C@H](O)[C@H]1O [Naringin] | 100.87 ± 17.42 % of control
49 | CCOC(=O)C1=C(C)NC(C)=C(C(=O)OC)C1c1cccc([N+](=O)[O-])c1 (centres unmarked) [Nitrendipine] | 27.00 ± 0.21 % of control
50 | CCOc1ccc(Cc2cc([C@]34OC[C@](CO)(O3)[C@@H](O)[C@H](O)[C@H]4O)ccc2Cl)cc1 [PF-04971729] | 92.72 ± 3.41 % of control
51 | O=C(/C=C/C=C/c1ccc2c(c1)OCO2)N1CCCCC1 [Piperine] | 203.66 ± 9.93 % of control
52 | CC(=O)Oc1cc2c(s1)CCN(C(C(=O)C1CC1)c1ccccc1F)C2 (centres unmarked) [Prasugrel] | 31.93 ± 1.49 % of control
53 | CCCNCC(O)COc1ccccc1C(=O)CCc1ccccc1 (centres unmarked) [Propafenone] | 54.95 ± 0.92 % of control
54 | O=c1c(O)c(-c2ccc(O)c(O)c2)oc2cc(O)cc(O)c12 [Quercetin] | 57.86 ± 5.58 % of control
55 | C=C[C@H]1C[N@@]2CC[C@H]1C[C@@H]2[C@@H](O)c1ccnc2ccc(OC)cc12 [Quinidine] | 37.44 ± 4.20 % of control
56 | Oc1ccc(/C=C/c2cc(O)cc(O)c2)cc1 [Resveratrol] | 18.69 ± 0.46 % of control
57 | O=C(NC[C@H]1CN(c2ccc(N3CCOCC3=O)cc2)C(=O)O1)c1ccc(Cl)s1 [Rivaroxaban] | 85.62 ± 0.92 % of control
58 | C[C@@H]1O[C@@H](OC[C@H]2O[C@@H](Oc3c(-c4ccc(O)c(O)c4)oc4cc(O)cc(O)c4c3=O)[C@H](O)[C@@H](O)[C@@H]2O)[C@H](O)[C@H](O)[C@H]1O [Rutin] | 91.63 ± 0.31 % of control
59 | CC(C)N(CCCCOCC(=O)NS(C)(=O)=O)c1cnc(-c2ccccc2)c(-c2ccccc2)n1 [Selexipag] | 28.78 ± 2.21 % of control
